The text below walks through data of US5376634A, “Polypeptide compound and a process for preparation thereof” (Fujisawa Pharmaceutical Co., Ltd., priority 1990, dated 1994).

Data set [1] relates to ICR mice. Put plainly: Acute toxicity, single intravenous injection. The settings on record: ICR mice (female, 4 weeks old), dose of 500 mg/kg. It is filed as in vivo. The protocol: The acute toxicity of the FR131535 substance was determined to ICR mice (female, 4 weeks old) by a single intravenous injection.
Data set [2] can be described thus: Solubility (physico-chemical properties). It is filed as physicochemical.

Starred links: 1 amine or outer side, 2 acyl side, 3 side chain; linkers in the order of their positions; H or OH if unused. Positions of bridges follow the written chain, without caps; N, C: chain ends. Non-standard residues stand in square brackets, D forms with d. Residues, ends and D or L forms follow the SMILES beside them. *: point of attachment. hTyr(3S-OH,4S-OH,3'-OSO3H) = N[C@H](C(=O)O)[C@H](O)[C@@H](O)c1ccc(O)c(OS(=O)(=O)O)c1; Orn(4R-OH,5S-OH) = O=C([C@H](C[C@@H](O)[C@H](O)N[*:3])N[*:1])[*:2]; Pro(3S-OH,4S-Me) = C[C@H]1CN[C@H](C(=O)O)[C@H]1O; Benzoyl(4-octyloxy) = CCCCCCCCOc1ccc(C(=O)*)cc1; Gln(3R-OH) = NC(=O)C[C@@H](O)[C@H](N)C(=O)O; Hyp = O=C(O)[C@@H]1C[C@@H](O)CN1

On to `CCCCCCCCOc1ccc(C(=O)N[C@H]2C[C@@H](O)[C@H](O)NC(=O)[C@@H]3[C@@H](O)[C@@H](C)CN3C(=O)[C@H]([C@H](O)CC(N)=O)NC(=O)[C@H]([C@H](O)[C@@H](O)c3ccc(O)c(OS(=O)(=O)O)c3)NC(=O)[C@@H]3C[C@@H](O)CN3C(=O)[C@H]([C@@H](C)O)NC2=O)cc1` [FR131535] ({Benzoyl(4-octyloxy)}-[Orn(4R-OH,5S-OH)]T[Hyp][hTyr(3S-OH,4S-OH,3'-OSO3H)][Gln(3R-OH)][Pro(3S-OH,4S-Me)]; lactam 1-C), for which the acute toxicity result in data set [1] is reported as “No toxic symptom was observed”. Moreover, the Solubility entry in data set [2] (acetone) is “slightly soluble”; in data set [2] (methanol), “soluble”; in data set [2] (n-hexane), “insoluble”; in data set [2] (water), “soluble”.
